Measured values reported in PubChem BioAssay (NCI).
Values joined by “and” are separate entries in the source; they are usually repeats but may differ in a detail not shown here. Equal values may be shown once.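 Where inhibition never reached the appropriate level, the endpoint shown equals the highest concentration tested. Otherwise, values were interpolated linearly from a five-concentration, 48-hour dose response in 96-well plates. GI50 marks 50% less growth. TGI: total growth inhibition.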

Assays:
Experiment in all cases: DTP human tumour cell line panel, 48 h
CAKI-1 renal = system: CAKI-1 renal
CCRF-CEM leukemia = system: CCRF-CEM leukemia
RPMI-8226 leukemia = system: RPMI-8226 leukemia
SK-OV-3 ovarian = system: SK-OV-3 ovarian
U251 CNS = system: U251 CNS
OVCAR-3 ovarian = system: OVCAR-3 ovarian
M14 melanoma = system: M14 melanoma
DU-145 prostate = system: DU-145 prostate
MALME-3M melanoma = system: MALME-3M melanoma
UACC-62 melanoma = system: UACC-62 melanoma

Row | SMILES | GI50 (CAKI-1 renal) | TGI (CAKI-1 renal) | GI50 (CCRF-CEM leukemia) | TGI (CCRF-CEM leukemia) [µM] | GI50 (RPMI-8226 leukemia) | TGI (RPMI-8226 leukemia) | GI50 (SK-OV-3 ovarian) | TGI (SK-OV-3 ovarian) | GI50 (U251 CNS) | TGI (U251 CNS) | GI50 (OVCAR-3 ovarian) | TGI (OVCAR-3 ovarian) [µM] | GI50 (M14 melanoma) | TGI (M14 melanoma) | GI50 (DU-145 prostate) | TGI (DU-145 prostate) [µM] | GI50 (MALME-3M melanoma) | TGI (MALME-3M melanoma) | GI50 (UACC-62 melanoma) | TGI (UACC-62 melanoma)
1 | COc1cccc(Nc2ncnn3ccc(CN4CC[C@@H](N)[C@H](O)C4)c23)c1 | 0.2 µM and 0.242 µM | 2.52 µM and > 4.35 µM | 25.2 µM and > 4.58 µM | > 100 | 20.9 µM and > 5.39 µM | 68 µM and > 10 µM | 0.0386 µM and 0.0322 µM | 0.772 µM and 0.129 µM | 14.4 µM and > 5.46 µM | 49.3 µM and > 10 µM | 3.92 µM and 1.63 µM | > 60.8 | 20.4 µM and > 5.03 µM | 36 µM and > 10 µM | 1.59 µM and 0.927 µM | > 100 | 17.6 µM and > 4.83 µM | 35.2 µM and > 10 µM | 20.4 µM and > 3.85 µM | 41.3 µM and > 9.23 µM
2 | CCOC(=O)Cc1csc(Nc2nc(O)c(C3=c4ccccc4=NC3=O)s2)n1 | 24.3 µM | 57.2 µM | 21.1 µM | 50.8 | 20.9 µM | 53.2 µM | 31.1 µM | 67.6 µM | 19.2 µM | 39.6 µM | 26.9 µM | 61.5 |  |  | 24.6 µM | 56.7 | 25.5 µM | 78.4 µM | 15.7 µM | 34.6 µM
3 | NNC(=S)N/N=C/c1ccccn1 | 1.66 µM | > 100 µM | 2.05 µM | > 100 | 2.44 µM | > 100 µM | 2.89 µM | > 100 µM | 1.99 µM | > 100 µM | 3.02 µM | > 100 |  |  | 1.85 µM | > 100 | 5.19 µM | > 100 µM | 2.03 µM | 14 µM
4 | CC(=O)N[C@@H](Cc1ccc(OP(=O)(O)O)cc1)C(=O)N[C@H]1CCC(=O)N2CCC[C@@H](C(=O)NCc3cccc4ccccc34)N2C1=O | > 25 µM | > 25 µM | > 25 µM | > 25 | > 25 µM | > 25 µM | > 25 µM | > 25 µM | > 25 µM | > 25 µM | > 25 µM | > 25 | > 25 µM | > 25 µM | > 25 µM | > 25 | > 25 µM | > 25 µM | > 25 µM | > 25 µM
5 | COC(=O)Nc1nc2ccc(C(=O)C3CC3)cc2[nH]1 | 0.305 µM | > 51.6 µM | 0.332 µM |  | 0.219 µM | 0.696 µM | 0.412 µM | > 62 µM | 0.426 µM | > 100 µM | 0.207 µM | 0.448 | 0.276 µM |  | 0.256 µM | 1.11 | 0.392 µM | > 100 µM | 0.487 µM | > 100 µM
6 | OC1CCC(COC(c2ccccc2)(c2ccccc2)c2ccccc2)O1 (centres undefined) |  | 30.9 µM |  | 35.8 |  | 40.7 µM |  | 36.6 µM |  | 36 µM |  | 32.4 |  | 32.7 µM |  | 38.3 |  | 42.3 µM |  | 33.8 µM
7 | COc1c(O)cc2c(c1CC=C(C)C)OC(=O)c1c(cc(O)c(CC=C(C)C)c1O)O2 | 4.32 µM | 8.61 µM | 7.63 µM | 25 | 5.95 µM | 15.7 µM | 4.44 µM | 8.01 µM | 4.23 µM | 7.75 µM | 3.83 µM | 7.2 | 4.22 µM | 8.5 µM | 4.18 µM | 7.62 | 4.62 µM | 8.7 µM | 3.74 µM | 7.48 µM
8 | O=C(CSc1nc2ccc([N+](=O)[O-])cc2[nH]1)Nc1ccc([N+](=O)[O-])cc1 | 2.08 µM | 7.67 µM | 2.48 µM | > 100 | 1.27 µM | > 23.2 µM | 1.89 µM | 5.59 µM | 2.62 µM | 15.5 µM | 2.05 µM | 10.9 | 2.73 µM | 19.9 µM | 3.51 µM | 15.6 | 1.88 µM | 8.1 µM | 1.36 µM | 7.52 µM
9 | COc1cc2c3c(n(CCCNC(C)(C)CO)c(=O)c2cc1OC)-c1cc2c(cc1C3=O)OCO2 | 0.446 µM | 23.8 µM |  | 1.58 | 0.0169 µM | 0.464 µM | 17.9 µM | > 68.2 µM | 0.233 µM | 28.4 µM | 15.1 µM | 39.8 | 0.754 µM | 19 µM | 0.819 µM | 16.3 | 14.8 µM | 51.1 µM | 0.198 µM | 5.23 µM
10 | CCOC(=O)c1cc2c(OC)cc(OC)cc2oc1=O |  | > 100 µM |  | > 100 |  | > 100 µM |  |  |  | > 100 µM |  | > 100 |  | > 100 µM |  | > 100 |  | > 100 µM |  | > 100 µM
11 | CN(CCNc1ccc(C(=N)N)cc1)c1ccc(C(=N)N)cc1 | 2.7 µM | 37.3 µM | 88.8 µM | > 100 |  |  | 34.5 µM | > 100 µM | 30.6 µM | > 100 µM | 37.3 µM | > 100 | 57 µM | > 100 µM | 19.2 µM | > 100 | 26.6 µM | > 100 µM | 32.6 µM | > 100 µM
12 | Clc1ccc(Nc2ncnc3ccccc23)cc1 | 13.1 µM | 61.1 µM | 48.8 µM | > 100 |  |  | 91.1 µM | > 100 µM | 72.5 µM | > 100 µM | 34.9 µM | > 100 | 54.9 µM | > 100 µM | 26.4 µM | > 100 | 33.9 µM | > 100 µM | 78 µM | > 100 µM
13 | ClCCN(CCCl)c1ccc(OCc2ccccc2)cc1 | 0.709 µM | 66.5 µM | 2.36 µM | 27.6 | 3.79 µM | 36.5 µM | 7.85 µM | 61.4 µM | 2.1 µM | 18.2 µM | 8.54 µM | 34.8 | 4.16 µM | 42.2 µM | 3.16 µM | 27.6 | 10.2 µM | 34.4 µM |  | 
14 | CCOC(=O)c1c2c(n(Cc3ccccc3)c1C)-c1nc[nH]c1C(=O)C2=O | 18.5 µM | 38.5 µM | 1.57 µM | 7.87 | 1.1 µM | 10.7 µM | 19.5 µM | 33.6 µM | 14.7 µM | 27.8 µM | 13.9 µM | 26.8 | 21.4 µM | 37.9 µM | 9.83 µM | 21.5 | 11.3 µM | 23.9 µM |  | 
